Measured values reported in US20100003679A1, “ASSESSMENT OF CELLULAR COMPOSITION AND FRACTIONAL VIABILITY AND USES THEREOF” (University of Miami, priority 2006, published 2010).

Experiments:
Format in all cases: cell-based
[1] = system: PDC (CA19-9+ ductal cells) of human islet preparations; assay: Simultaneous β-cell/PDC viability by FACS after noxious stimuli: ductal cell subset; conditions: 24 h, SNAP 0.5 mM, H2O2 200 μM, IL-1β 50 U/ml + TNF-α 1,000 U/ml + IFN-γ 1,000 U/ml, vs absence of stimulus
Description: (§1) Assessment of PDC-specific viability: Single cell suspensions were incubated for 30 min at 37° C. in phosphate buffered saline (PBS) without Ca^2+ and Mg^2+ with Newport Green PDX acetoxymethylether (NG; […]) and tetramethylrhodamineethylester (TMRE; 100 ng/ml; both from Molecular Probes). Cells were incubated with anti-CA19-9 antibody (1:100) for 15 min followed by goat anti-mouse antibody (Alexa-647). After washing, cells were stained with 7-aminoactinomycin D (7-AAD; Molecular Probes), a marker of cell death. Cell suspensions were analyzed (minimum 3.0 104 events) using a FACScan cytometer with the CellQuest-pro software (Becton Dickinson, Mountain View, Calif.). We have evaluated apoptosis selectively in the NG^bright and CA19-9+ cells according to the scheme in FIGS. 19A-E. After counting, dead cells (7-AAD+) were excluded from further analysis, live β-cells (NG^bright) and PDC (CA19-9^+) were analyzed for mitochondrial membrane potential (TMRE), which allows discriminating between healthy (TMRE^+) and apoptotic (TMRE^−) cells. […]

[2] = system: β-cells (NG bright) of human islets; assay: Simultaneous β-cell/PDC viability by FACS after noxious stimuli: β-cell subset; conditions: human islet cells, 24 h; SNAP 0.5 mM; H2O2 200 μM; IL-1β 50 U/ml + TNF-α 1,000 U/ml + IFN-γ 1,000 U/ml; vs absence of stimulus
Description: as §1

[3] = system: β-cells (NG bright) of human islets; assay: β-cell apoptosis after delivery of noxious stimuli (TMRE staining in NG bright subset, FACS); conditions: SNP 0.5 mM 18 h, H2O2 200 μM 18 h, IL-1β 50 U/ml alone or with TNF-α 1000 U/ml and IFN-γ 1000 U/ml 24 h, vs absence of stimulus
Description: Determination of fractional β-cell viability. For assessment of apoptosis, single cell suspensions were incubated with 1 μM Newport Green PDX acetoxymethylether (NG; Molecular Probes) and 100 ng/ml of tetramethylrhodamine ethyl ester (TMRE; Molecular Probes) for 30 min at 37° C. in PBS without Ca^2+ and Mg^2+. Newport Green allows for the definition of cell subsets according to zinc content (18). TMRE selectively binds to mitochondrial membranes, allowing for detection of apoptosis (that results in decreased staining) (19-20). After washing, cells were stained with 7-aminoactinomycin D (7-AAD; Molecular Probes), which binds to DNA when cell membrane permeability is altered after cell death. Cell suspensions were analyzed (minimum 3.0×10^4 events) using a FACScan cytometer (Becton Dickinson, Mountain View, Calif.) with the CellQuest software.
Delivery of pro-apoptotic stimuli to islet cells: Islets were treated with selected compounds to induce apoptosis. The nitric oxide (NO) donor sodium nitroprusside (Baxter Healthcare Corporation, Deerfield, Ill.) was used at 0.5 mM for 18 hours. Hydrogen peroxide (H2O2; Sigma) was used at 200 μM for 18 hours. IL-1-β (50 U/ml) alone or in combination with TNF-α (1000 U/ml) and IFN-γ (1000 U/ml) was used for 24 hours. […]

CC(=O)NC(C(=O)O)C(C)(C)SN=O (racemic) [SNAP, S-Nitroso-N-acetyl-DL-penicillamine]
apoptosis by TMRE staining in ductal cell (PDC) subset [1]: increased apoptosis | apoptosis by TMRE staining in β-cell subset [2]: increased apoptosis

OO [H2O2, Hydrogen peroxide]
apoptosis by TMRE staining in ductal cell (PDC) subset [1]: increased apoptosis | apoptosis by TMRE staining in β-cell subset [2]: increased apoptosis | percentage of apoptotic β-cells (TMRE−, NG bright) [3]: increase in the percentage of apoptotic β-cells

IL-1β: cytokine used as pro-apoptotic stimulus on islets
percentage of apoptotic β-cells (TMRE−, NG bright) [3]: increase in the percentage of apoptotic β-cells
